Results: US20230235378A1, “LZHEIMER'S DISEASE-SPECIFIC ALTERATIONS OF PROTEIN KINASE C EPSILON (PKC-EPSILON PROTEIN LEVELS” (WEST VIRGINIA UNIVERSITY BOARD OF GOVERNORS ON BEHALF OF …, priority 2010, published 2023)

Experiments:
PKCε [1] = biological target: T1, PKCε (Homo sapiens, UniProt Q02156); assay: Protein kinase C assay with recombinant PKC epsilon isoform ([γ32P]ATP, histones); assay type: biochemical; settings: lowest concentration tested (10 nM)
T1 construct: purchased Calbiochem (San Diego, Calif.)
T1 sequence (Q02156 1-737): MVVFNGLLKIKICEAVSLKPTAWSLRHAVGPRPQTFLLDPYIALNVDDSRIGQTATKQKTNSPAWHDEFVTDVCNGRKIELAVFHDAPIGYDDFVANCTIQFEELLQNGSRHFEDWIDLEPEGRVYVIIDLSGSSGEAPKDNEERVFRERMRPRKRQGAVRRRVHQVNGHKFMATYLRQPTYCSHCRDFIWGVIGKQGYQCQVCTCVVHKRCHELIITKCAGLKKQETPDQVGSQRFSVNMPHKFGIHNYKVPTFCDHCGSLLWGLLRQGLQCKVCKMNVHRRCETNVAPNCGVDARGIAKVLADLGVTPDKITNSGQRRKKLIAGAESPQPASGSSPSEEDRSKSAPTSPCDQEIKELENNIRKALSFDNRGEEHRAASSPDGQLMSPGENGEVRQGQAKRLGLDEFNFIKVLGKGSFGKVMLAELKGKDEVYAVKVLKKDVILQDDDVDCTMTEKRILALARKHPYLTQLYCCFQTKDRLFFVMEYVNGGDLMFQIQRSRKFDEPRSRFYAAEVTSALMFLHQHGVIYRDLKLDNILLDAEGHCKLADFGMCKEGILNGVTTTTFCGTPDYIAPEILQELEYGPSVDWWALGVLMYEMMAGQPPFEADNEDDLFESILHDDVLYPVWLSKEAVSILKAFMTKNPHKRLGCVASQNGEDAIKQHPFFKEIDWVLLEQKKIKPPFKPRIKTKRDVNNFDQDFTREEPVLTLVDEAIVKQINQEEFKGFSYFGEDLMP
Description: (§1) Protein Kinase C Assay. Recombinant PKC (1 ng of alpha or epsilon isoform) was mixed with the BR-101 (DCP-LA) in the presence of 10 micromolar histones, 5 mM CaCl2, 1.2 μg/μl phosphatidyl-L-serine, 0.18 μg/μl 1,2-dioctanoyl-sn-glycerol (DAG), 10 mM MgCl2, 20 mM HEPES (pH 7.4), 0.8 mM EDTA, 4 mM EGTA, 4% glycerol, 8 μg/ml aprotinin, 8 μg/ml leupeptin, and 2 mM benzamidine. 0.5 micro Ci [γ32P]ATP was added. The incubation mixture was incubated for 15 min at 37 degrees in a total volume of 10 microliters. The reaction was stopped by spotting the reaction mixtures on 1×2 cm strips of cellulose phosphate paper (Whatman P81) and immediately washing twice for 1 hr in 0.5% H3PO4. The cellulose phosphate strips were counted in a scintillation counter. In some experiments, phosphatidylserine, diacylglycerol, and/or calcium were removed.

PKCα = biological target: T2, PKCα (Homo sapiens, UniProt P17252); assay: Protein kinase C assay with recombinant PKC alpha isoform ([γ32P]ATP, histones); assay type: biochemical; settings: data not shown
T2 construct: purchased Calbiochem (San Diego, Calif.)
Description: as §1

purified PKC = biological target: T3, purified PKC (Homo sapiens, UniProt Q02156); assay: PKC isozyme specificity: purified PKC preincubated with compound, activity measured radiometrically; assay type: biochemical; settings: 10 μM; data not shown
T3 construct: purchased Calbiochem
T3 sequence (Q02156 1-737): T1 sequence (Q02156 1-737)
Description: Protein Kinase C Assay. Rat hippocampal cells were cultured and scraped in 0.2 ml homogenization buffer (20 mM Tris-HCl, pH 7.4, 50 mM NaF, 1 μg/ml leupeptin, and 0.1 mM PMSF) and homogenized by sonication in a Marsonix micro-probe sonicator (5 sec, 10 W). To measure PKC, 10 μl of cell homogenate or purified PKC isozyme (purchased from Calbiochem) was incubated for 15 min at 37° C. in the presence of 10 μM histones, 4.89 mM CaCl2, 1.2 μg/μl phosphatidyl-L-serine, 0.18 μg/μl 1,2-dioctanoyl-sn-glycerol, 10 mM MgCl2, 20 mM HEPES (pH 7.4), 0.8 mM EDTA, 4 mM EGTA, 4% glycerol, 8 μg/ml aprotinin, 8 μg/ml leupeptin, and 2 mM benzamidine. 0.5 μCi [γ-32P]ATP was added and 32P-phosphoprotein formation was measured by adsorption onto phosphocellulose as described previously. Nelson and Alkon, J. Neurochemistry. 1995; 65: 2350-57. For measurements of activation by BR-101 (DCP-LA) and similar compounds, PKC activity was measured in the absence of diacylglycerol and phosphatidylserine, as described by Kanno et al., and PKC δ, ε, η, and were measured in the absence of added EGTA and CaCl2, as described by Kanno et al., J. Lipid Res. 2006; 47: 1146-50. Low concentrations of Ca2+ are used because high Ca2+ interacts with the PKC phosphatidylserine binding site and prevents activation. For measurements of bryostatin activation, 1,2-diacylglycerol was omitted unless otherwise stated.
To determine their PKC isozyme specificity, the new compounds were preincubated with purified PKC for five minutes and the PKC activity was measured radiometrically.

Aß = Aß production in N2a neuroblastoma cells transfected with human APPSwe/PS1D (Aß 1-42 ELISA); assay type: cell-based, mouse
Description: (§2) Aß Measurement and Cell Viability Assay. Aß was measured using an Aß 1-42 human fluorimetric ELISA kit (Invitrogen) according to the manufacturer's instructions. Results were measured in a Biotek Synergy HT microplate reader. AlamarBlue and CyQuant NF (Invitrogen) according to the manufacturer's instructions.
To measure the effects of PKC activation on Aß production, we used mouse neuro2a (N2a) neuroblastoma cells transfected with human APPSwe/PS1D, which produce large quantities of Aβ. Petanceska et al., J. Neurochem. 1996; 74: 1878-84. […] With bryostatin, which activates PKC by binding to the diacylglycerol-binding site, the inhibition was biphasic, with concentrations of 20 nM or higher producing no net effect. This may be explained by the ability of this class of PKC activators to downregulate PKC when used at high concentrations.

[2] = Cell viability assay (alamar Blue and CyQuant staining); assay type: cell-based
Description: as §2

[3] = system: Endothelin-converting enzyme (ECE); assay: ECE assay in neuroblastoma cells (fluorimetric, McaBK2); assay type: cell-based, human; settings: bryostatin 0.27 nM, BR-101 1 μM, BR-111 1
Description: ECE Assay. SH-5757 neuroblastoma cells were incubated with bryostatin (0.27 nM), BR-101 (DCP-LA) (1 μM), and BR-111 (DHA-CP6) (1 Endothelin-converting enzyme (ECE) was measured fluorimetrically using the method of Johnson and Ahn, Anal. Biochem. 2000; 286: 112-118. A sample of cell homogenate (20 μl) was incubated in 50 mM MES-KOH, pH 6.0, 0.01% C 12E10 (polyoxyethylene-10-lauryl ether), and 15 μM McaBK2 (7-Methoxycoumarin-4-acetyl [Ala7-(2,4-Dinitrophenyl)Lys9]-bradykinin trifluoroacetate salt) (Sigma-Aldrich). After 60 min at 37° C., the reaction was quenched by adding trifluoroacetic acid to 0.5%. The sample was diluted to 1.4 ml with water and the fluorescence was measured at ex=334 nm, em=398 nm.

PKCε [4] = biological target: T1, PKCε; settings: Kanno et al.; cited from earlier work

CCCCCC1CC1CC1CC1CCCCCCCC(=O)O (centres unmarked) [BR-101, 8-[2-(2-pentyl-cyclopropylmethyl)-cyclopropyl]-octanoic acid]
activation of PKCε (PKCε [1]): 2.75 fold | effect on PKCα (PKCα): not affected | activation of PKC (purified PKC): effective activator | levels of both intracellular and secreted Aß (Aß; 24 h incubation, various concentrations): markedly reduced | concentration dependence of Aß inhibition (Aß; concentrations up to 10 to 100 μM, no evidence of downregulation at higher concentrations): monotonically increasing inhibition | effect on cell survival or proliferation [2]: no effect | change in ECE activity [3]: sustained increase | potency for PKCε over other PKC isozymes (PKCε [4]): greater than 7 fold
